Assays:
[1] = test system: CIRI mice; assay: MCAO cerebral ischemia-reperfusion injury model: neurological deficit score and TTC infarct volume; assay type: in vivo, C57BL/6 mice; settings: edaravone 3 mg/kg i.v. at 1 h of ischemia; 24 h reperfusion; TTC; I/R group 34.24%
Experimental: Male C57BL/6 mice (Beijing Vital River Laboratory Animal Technology Co. Ltd., Beijing, China) weighing 22–28 g and aged 8–10 weeks were used. All animal experiments were approved by the Institutional Animal Care and Use Committee of Tongji Hospital (Wuhan, China). All procedures were performed in accordance with specific pathogen-free standards. Mice were randomly divided into the following seven groups: sham, I/R, vehicle (I/R + saline), I/R + TJ-5 (5 mg/kg), I/R + TJ-5 (10 mg/kg), I/R + TJ-5 (15 mg/kg), and I/R + edaravone (3 mg/kg).
The mice were anesthetized with 1% pentobarbital sodium solution via intraperitoneal injection, and the body temperature was maintained at 37.0°C–37.5°C. The middle cerebral artery occlusion (MCAO) model was established according to the Longa method, as described previously ([Longa et al., 1989]). In brief, the right carotid artery was carefully separated and exposed. A silicon-coated embolic suture (Doccol, United States) was inserted slowly from the external carotid artery (ECA) into the internal carotid artery (ICA) until it reached the middle cerebral artery (MCA). After 1 h of ischemia, the embolic suture was withdrawn. The surgical procedure in the sham group was the same as that in the I/R group, but the MCA was not obstructed.
After 24 h of reperfusion, each group of mice was scored blindly, according to the scoring system of the Longa method ([Longa et al., 1989]). The score was 0 for no obvious neurological deficit, one for inability to fully extend the left forelimb, two for turning to the left, three for leaning to the left while walking, and four for the inability to walk spontaneously and impaired consciousness.
The mice were sacrificed 24 h after I/R. Mouse brains were harvested for the measurement of cerebral infarct volume. The brains were frozen at −80°C for 5 min and cut into five 2-mm thick slices. The slices were then placed in a small dish, 2% 2,3,5-triphenyltetrazolium chloride (TTC) solution (Sigma, United States) was added, and 4% paraformaldehyde was used for fixation. Images were captured using a digital camera. ImageJ software was used to measure the volume of the brain infarction.

[2] = test system: LPS-stimulated BV-2 cells; assay: LPS-stimulated BV-2 cell model: morphology and TNF-α/IL-6 ELISA; assay type: cell-based; settings: LPS-stimulated BV-2 cells; pretreatment 2 h, LPS 24 h; ELISA
Experimental: (§1) BV-2 microglial and SH-SY5Y cells were cultured as previously described ([Zhao et al., 2020]). A lipopolysaccharide (LPS)-stimulated BV-2 cell model was established to mimic severe neuroinflammation induced by multiple inflammatory mediators after reperfusion ([Li et al., 2021]). BV-2 cells were pretreated with different concentrations of TJ-5 for 2 h before LPS (1 μg/ml) stimulation (#L2880, Sigma, United States). Twenty-4 hours later, BV-2 cells and the culture supernatants were harvested for subsequent experiments. In addition, ST2825, a recognized MyD88 inhibitor, was used as positive control group.
Enzyme-linked immunosorbent assay (ELISA) kits were used to detect the levels of TNF-α, IL-1β, and IL-6 in the brain. Brain tissue was homogenized in 1 ml of phosphate-buffered saline using a tissue homogenizer. Then, the homogenates were centrifuged at 14,000 g for 10 min at 4 °C. The supernatant was immediately transferred for measurement following the manufacturer’s instructions. BV-2 cells were incubated with different treatments and the supernatants were collected and measured.

[3] = test system: NF-κB p65; assay: NF-κB p65 nuclear translocation in LPS-stimulated BV-2 cells, immunofluorescence; assay type: cell-based; settings: 12 h after LPS stimulation
Experimental: as §1, with “Twenty-4 hours later, BV-2 cells and the culture supernatants were harvested for subsequent experiments.” left out
For BV-2 cells immunofluorescence staining, the cells were fixed with 4% paraformaldehyde for 10 min and permeabilized with 0.5% Triton X-100 for 10 min. After blocking with goat serum, the cells were sequentially incubated with the primary antibody, secondary antibody, and Hoechst in sequence. Images were captured using a confocal microscope. The fluorescence intensity was analyzed using ImageJ software.

Row | Structure (SMILES) | percentage of infarct volume [1] | levels of TNF-α and IL-6 in supernatants [2] | LPS-induced NF-κB p65 nuclear translocation [3]
1 | CC1=NN(c2ccccc2)C(=O)C1 [edaravone, reference compound] | 18.59% | – | –
2 | NC(=O)[C@H]1CCS[C@@H]2C[C@]3(CCCN3C(=O)Cc3ccc(NC(=O)COc4ccc(Cl)cc4Cl)cc3)C(=O)N12 [ST2825, reference compound] | – | same anti-inflammatory effect | same
